Values quoted from earlier work in article PMC2151269, “Broad phase II and pharmacokinetic study of methoxy-morpholino doxorubicin (FCE 23762-MMRDX) in non-small-cell lung cancer, renal cancer and other solid tumour patients” (British Journal of Cancer, 1998).

Design: method as in Tidefelt et al, 1989
Settings: 0-48 h after simultaneous infusion of 20 mg of epirubicin and 20 mg of doxorubicin; ref Tidefelt et al, 1989; cited from earlier work

COc1cccc2c1C(=O)c1c(O)c3c(c(O)c1C2=O)C[C@@](O)(C(=O)CO)C[C@@H]3O[C@H]1C[C@H](N)[C@H](O)[C@H](C)O1 [doxorubicin]
Peak cellular concentrations relative to plasma concentrations: around 200 times

COc1cccc2c1C(=O)c1c(O)c3c(c(O)c1C2=O)C[C@@](O)(C(=O)CO)C[C@@H]3O[C@H]1C[C@H](N)[C@@H](O)[C@H](C)O1 [epirubicin]
Peak cellular concentrations relative to plasma concentrations: around 200 times
